Source: US20200017496A1 (priority 2017, published 2020)
Values joined by “and” are separate entries in the source; they are usually repeats but may differ in a detail not shown here. Identical values can stand only once. Like-named read-outs stand apart in the source and are kept apart here.

Assays:
Experiment in all cases: MIC of compounds alone and combined with antibacterials, broth microdilution (CLSI)
Type in all cases: cell-based
[1] = system: Escherichia coli (ECO) isolates; conditions: for MIC ATB in combination: AF1 @ 4 μg/mL; for MIC: Escherichia coli
Experimental: (§1) Method 2: MIC of Compounds Alone and Combined with Antibacterials Against Bacterial Isolates.
(§2) Compounds of the present invention were assessed against genotyped bacterial strains (Table 3, 4) alone or in combination with an antibacterial (Table 2). […] Log phase bacterial suspensions were adjusted to a final density of 5·10^5 CFU/mL in cation-adjusted Mueller-Hinton broth (ca-MHB; Becton-Dickinson and Company) and added to each well (98 μL). Microplates were incubated for 16-20 h at 35° C. in ambient air. The MIC of the compounds was defined as the lowest concentration of said compounds that prevented bacterial growth as read by visual inspection. The MIC of ATB at each compound concentration was defined as the lowest concentration of ATB that prevented bacterial growth as read by visual inspection.

[2] = system: Citrobacter freundii (CFR) isolates
Experimental: as §1, §2

[3] = system: Providencia rettgeri (PRE) isolates; conditions: for MIC: Providencia rettgeri
Experimental: as §1, §2

[4] = system: Salmonella typhimurium (STY) isolates; conditions: for MIC: Salmonella enterica, TYPHIMURIUM, strain STY S3371 (OXA-1)
Experimental: as §1, §2

[5] = system: Enterobacter aerogenes (EAE) isolates
Experimental: as §1, §2

[6] = system: Providencia stuartii (PST) isolates; conditions: for MIC ATB in combination: AF1 @ 4 μg/mL
Experimental: as §1, §2

For CC1(C)S[C@@H]2[C@H](NC(=O)[C@H](N)c3ccc(O)cc3)C(=O)N2[C@H]1C(=O)O [AMX, Amoxicillin], which “MIC ATB in combination” value ([1]; ECO UFR190) is on record?
Its value is 8 µg/mL.

And the “MIC ATB in combination” value ([1]; ECO UFR191)?
The value was 8 µg/mL.

What about the “MIC ATB in combination” value ([1]; ECO UFR207) of the same compound?
The value was 32 µg/mL.

What about the “MIC ATB in combination” value ([1]; ECO UFR208) of the same compound?
Its value is 256 µg/mL.

And the “MIC ATB in combination” value ([1]; ECO UFR209)?
The value was 4 µg/mL.

And the “MIC ATB in combination” value ([1]; ECO UFR210)?
Its value is “<=1 μg/mL”.

And the “MIC ATB in combination” value ([1]; ECO UFR211)?
The value was “<=1 μg/mL”.

What about the “MIC ATB in combination” value ([1]; ECO UFR212) of the same compound?
The value was 64 µg/mL.

And the “MIC ATB in combination” value ([1]; ECO UFR218)?
The value was 8 µg/mL.

What about the MIC ([1]; strain ECO 131119 (TEM-1, OXA-48), ATB alone) of the same compound?
Its MIC is over 1020 µg/mL.

And the MIC ([1]; strain ECO 131119 (TEM-1, OXA-48), CLA @ 4 μg/ml+ ATB)?
Its MIC is over 512 µg/mL.

What about the MIC ([1]; strain ECO 180070 (TEM-1, CTX-M-15), CLA @ 4 μg/ml+ ATB) of the same compound?
The MIC was 16 µg/mL.

And the MIC ([1]; strain ECO 190314 (CTX-M-1), CLA @ 4 μg/ml+ ATB)?
Its MIC is 8 µg/mL.

What about the MIC ([1]; strain ECO 190317 (TEM-1, SHV-12, CTX-M-15, OXA-1), ATB alone) of the same compound?
The MIC was over 1020 µg/mL.

What about the MIC ([1]; strain ECO 190317 (TEM-1, SHV-12, CTX-M-15, OXA-1), CLA @ 4 μg/ml+ ATB) of the same compound?
The MIC was 64 µg/mL.

And the MIC ([1]; strain ECO 190549 (CTX-M-1), CLA @ 4 μg/ml+ ATB)?
The MIC was 8 µg/mL.

What about the MIC ([1]; strain ECO 200159 (TEM-1, CTX-M-14), CLA @ 4 μg/ml+ ATB) of the same compound?
Its MIC is 8 µg/mL.

What about the MIC ([1]; strain ECO 200259 (CTX-M-14), CLA @ 4 μg/ml+ ATB) of the same compound?
The MIC was 8 µg/mL.

And the MIC ([1]; strain ECO 200344 (CTX-M-1), CLA @ 4 μg/ml+ ATB)?
The MIC was 16 µg/mL.

What about the MIC ([1]; strain ECO 260096 (CTX-M-132), CLA @ 4 μg/ml+ ATB) of the same compound?
Its MIC is 4 µg/mL.

And the MIC ([1]; strain ECO 260304 (CTX-M-15), CLA @ 4 μg/ml+ ATB)?
Its MIC is 4 µg/mL.

What about the MIC ([1]; strain ECO 260508 (TEM-1, CTX-M-15, OXA-1), CLA @ 4 μg/ml+ ATB) of the same compound?
Its MIC is 64 µg/mL.

What about the MIC ([1]; strain ECO RGN238 (OXA-1), ATB alone) of the same compound?
The MIC was over 1020 µg/mL.

What about the MIC ([1]; strain ECO UFR207 (CTX-M-15), CLA @ 4 μg/ml+ ATB) of the same compound?
Its MIC is 32 µg/mL.

What about the MIC ([1]; strain ECO UFR209 (TEM-1, CTX-M-15), CLA @ 4 μg/ml+ ATB) of the same compound?
The MIC was 32 µg/mL.

And the MIC ([1]; strain ECO UFR210 (SHV-12), CLA @ 4 μg/ml+ ATB)?
The MIC was 8 µg/mL.

And the MIC ([1]; strain ECO UFR211 (TEM-24), CLA @ 4 μg/ml+ ATB)?
The MIC was 8 µg/mL.

And the MIC ([1]; strain ECO UFR218 (TEM-1, SHV-1, CTX-M-15), CLA @ 4 μg/ml+ ATB)?
Its MIC is 32 µg/mL.

What about the MIC [2] of the same compound?
Its MIC is 128 µg/mL and >256 µg/mL.

What about the “MIC ATB in combination” value [2] of the same compound?
The value was 128 µg/mL.

What about the “MIC ATB in combination” value ([2]; CFR UFR11, AF1 @ 4 μg/mL) of the same compound?
Its value is over 512 µg/mL.

And the “MIC ATB in combination” value ([2]; CFR UFR83, AF1 @ 4 μg/mL)?
Its value is over 512 µg/mL.

And the “MIC ATB in combination” value ([2]; CFR UFR146, AF1 @ 4 μg/mL)?
The value was 256 µg/mL.

What about the “MIC ATB in combination” value ([2]; CFR UFR248, AF1 @ 4 μg/mL) of the same compound?
The value was 64 µg/mL.

And the “MIC ATB in combination” value ([2]; CFR UFR249, AF1 @ 4 μg/mL)?
The value was 256 µg/mL.

And the “MIC ATB in combination” value ([2]; CFR UFR250, AF1 @ 4 μg/mL)?
The value was 32 µg/mL.

And the MIC ([2]; Citrobacter freundii)?
The MIC was over 128 µg/mL.

What about the “MIC ATB in combination” value ([2]; strain CFR UFR253, antibacterial combined with AF1 @ 4 μg/mL) of the same compound?
The value was 4 µg/mL.

And the “MIC ATB in combination” value ([2]; strain CFR UFR254, antibacterial combined with AF1 @ 4 μg/mL)?
Its value is 4 µg/mL.

And the “MIC ATB in combination” value ([3]; PRE UFR99, AF1 @ 4 μg/mL)?
The value was over 512 µg/mL.

What about the MIC ([3]; ATB combined with CLA @ 4 μg/ml, strain PRE UFR236 (TEM-1, OXA-48)) of the same compound?
The MIC was over 128 µg/mL.

What about the MIC ([3]; strain PRE UFR99 (OXA-1, OXA-181), ATB alone) of the same compound?
Its MIC is over 128 µg/mL.

What about the MIC ([3]; strain PRE UFR99 (OXA-1, OXA-181), CLA @ 4 μg/ml+ ATB) of the same compound?
Its MIC is over 128 µg/mL.

What about the MIC ([3]; ATB alone, strain PRE UFR236 (TEM-1, OXA-48)) of the same compound?
Its MIC is over 128 µg/mL.

And the “MIC ATB in combination” value ([3]; strain PRE UFR236, antibacterial combined with AF1 @ 4 μg/mL)?
Its value is 512 µg/mL.

And the “MIC ATB in combination” value [4]?
The value was 128 µg/mL.

And the MIC ([4]; ATB alone)?
The MIC was over 256 µg/mL.

What about the MIC ([4]; CLA @ 4 μg/ml+ ATB) of the same compound?
Its MIC is 128 µg/mL.

What about the MIC [5] of the same compound?
Its MIC is over 256 µg/mL.

And the “MIC ATB in combination” value [5]?
Its value is 128 µg/mL.

What about the “MIC ATB in combination” value ([5]; EAE UFR199, AF1 @ 4 μg/mL) of the same compound?
Its value is 64 µg/mL.

What about the “MIC ATB in combination” value ([5]; EAE UFR201, AF1 @ 4 μg/mL) of the same compound?
The value was “<=1 μg/mL”.

What about the “MIC ATB in combination” value ([5]; EAE UFR202, AF1 @ 4 μg/mL) of the same compound?
Its value is 64 µg/mL.

What about the “MIC ATB in combination” value ([5]; EAE UFR213, AF1 @ 4 μg/mL) of the same compound?
The value was 32 µg/mL.

And the MIC ([5]; Klebsiella aerogenes)?
Its MIC is over 128 µg/mL.

And the MIC ([5]; Klebsiella aerogenes, strain EAE 49469 (AmpC), ATB alone, read-out: MIC)?
The MIC was over 1020 µg/mL.

What about the MIC ([5]; Klebsiella aerogenes, strain EAE UFR201 (TEM-1, SHV-12, CTX-M-15), CLA @ 4 μg/ml+ ATB, read-out: MIC) of the same compound?
Its MIC is 16 µg/mL.

What about the MIC [6] of the same compound?
Its MIC is 128 µg/mL.

And the “MIC ATB in combination” value ([6]; PST UFR94)?
Its value is 16 µg/mL.

And the “MIC ATB in combination” value ([6]; PST UFR95)?
The value was 32 µg/mL.

And the “MIC ATB in combination” value ([6]; PST UFR235)?
The value was 32 µg/mL.

What about the MIC ([6]; Providencia stuartii) of the same compound?
The MIC was over 128 µg/mL.
